Data reported in publication PMC4836387 (ACS Chemical Biology, 2016).

Key:
HIV-1 IN = HIV-1 IN (Human immunodeficiency virus type 1 group M subtype B, UniProt P12497); experiment: in vitro IN assay, strand transfer; type: biochemical; settings: in vitro ST inhibitory IC50, text values
[1] = tested on: lentiviral vector carrying WT IN; experiment: single-round HIV-1 infectivity assay, WT IN; type: cell-based; settings: Human immunodeficiency virus 1, read-out: EC50 (WT IN)
[2] = tested on: HIV-1 vector carrying IN mutant Y143R; experiment: single-round HIV-1 infectivity assay, Y143R IN; type: cell-based; settings: for EC50: Human immunodeficiency virus 1, read-out: EC50 Y143R; for Fold-change (FC) in EC50 relative to WT, Y143R: in parentheses
[3] = tested on: HIV-1 vector carrying IN mutant N155H; experiment: single-round HIV-1 infectivity assay, N155H IN; type: cell-based; settings: for EC50: Human immunodeficiency virus 1, read-out: EC50 N155H; for Fold-change (FC) in EC50 relative to WT, N155H: in parentheses
[4] = tested on: HIV-1 vector carrying IN mutant G140S/Q148H; experiment: single-round HIV-1 infectivity assay, G140S/Q148H IN; type: cell-based; settings: for Fold-change (FC) in EC50 relative to WT, G140S/Q148H: in parentheses
[5] = tested on: HIV-1 vector carrying IN mutant G118R; experiment: single-round HIV-1 infectivity assay, G118R IN; type: cell-based; settings: for EC50: Human immunodeficiency virus 1, read-out: EC50 G118R; for Fold-change (FC) in EC50 relative to WT, G118R: in parentheses
[6] = tested on: HIV-1 vector carrying IN mutant R263K; experiment: single-round HIV-1 infectivity assay, R263K IN; type: cell-based; settings: for EC50: Human immunodeficiency virus 1, read-out: EC50 R263K; for Fold-change (FC) in EC50 relative to WT, R263K: in parentheses
[7] = tested on: HIV-1 vector carrying IN mutant T66I; experiment: single-round HIV-1 infectivity assay, T66I IN; type: cell-based; settings: for EC50: Human immunodeficiency virus 1, read-out: EC50 T66I; for Fold-change (FC) in EC50 relative to WT, T66I: in parentheses
[8] = tested on: HIV-1 vector carrying IN mutant E92Q; experiment: single-round HIV-1 infectivity assay, E92Q IN; type: cell-based; settings: for EC50: Human immunodeficiency virus 1, read-out: EC50 E92Q; for Fold-change (FC) in EC50 relative to WT, E92Q: in parentheses
[9] = tested on: HIV-1 vector carrying IN mutant H51Y; experiment: single-round HIV-1 infectivity assay, H51Y IN; type: cell-based; settings: for EC50: Human immunodeficiency virus 1, read-out: EC50 H51Y; for Fold-change (FC) in EC50 relative to WT, H51Y: in parentheses
[10] = tested on: HIV-1 vector carrying IN mutant H51Y/R263K; experiment: single-round HIV-1 infectivity assay, H51Y/R263K IN; type: cell-based; settings: for EC50: Human immunodeficiency virus 1, read-out: EC50 H51Y/R263K; for Fold-change (FC) in EC50 relative to WT, H51Y/R263K: in parentheses
in vitro = settings: human

| Structure (SMILES) | EC50 [1] | EC50 [2] | Fold-change (FC) in EC50 relative to WT, Y143R [2] | EC50 [3] | Fold-change (FC) in EC50 relative to WT, N155H [3] | Fold-change (FC) in EC50 relative to WT, G140S/Q148H [4] | EC50 [5] | Fold-change (FC) in EC50 relative to WT, G118R [5] | EC50 [6] | Fold-change (FC) in EC50 relative to WT, R263K [6] | EC50 [7] | Fold-change (FC) in EC50 relative to WT, T66I [7] | EC50 [8] | Fold-change (FC) in EC50 relative to WT, E92Q [8] | EC50 [9] | Fold-change (FC) in EC50 relative to WT, H51Y [9] | EC50 [10] | Fold-change (FC) in EC50 relative to WT, H51Y/R263K [10] | CC50 (in vitro) | also measured |
| --- | --- | --- | --- | --- | --- | --- | --- | --- | --- | --- | --- | --- | --- | --- | --- | --- | --- | --- | --- | --- |
| Nc1c(C(=O)NCc2ccc(F)cc2F)c(=O)n(O)c2ncc(CCCO)cc12 [4b] | 3.1 ± 2 nM | 2.8 ± 0.9 nM | 0.90 | 8.5 ± 3.1 nM | 2.7 | 4.3 | 10 ± 1.6 nM | 3.2 | 2.5 ± 0.8 nM | 0.81 | 1.1 ± 0.1 nM | 0.35 | 4.8 ± 2 nM | 1.5 | 2.6 ± 0.5 nM | 0.84 | 15 ± 2 nM | 4.8 | > 250 µM | IC50 (HIV-1 IN): 11 nM |
| Nc1c(C(=O)NCc2ccc(F)cc2F)c(=O)n(O)c2ncc(CCCCCO)cc12 [4c] | 1.3 ± 0.2 nM | 3 ± 0.5 nM | 2.3 | 2.4 ± 0.8 nM | 1.8 | 5.3 | 5.3 ± 1.6 nM | 4.1 | 2.6 ± 0.1 nM | 2.0 | 0.93 ± 0.24 nM | 0.72 | 3.8 ± 2.3 nM |  | 3.8 ± 0.6 nM | 2.9 | 2.6 ± 1.4 nM | 2.0 | > 250 µM | EC50 ([4]; read-out: EC50 G140S/Q148H, viral vector carrying IN mutations G140S/Q148H): 6.9 ± 2.3 nM |
| Nc1c(C(=O)NCc2ccc(F)cc2F)c(=O)n(O)c2ncc(CCCCCCO)cc12 [4d] | 2.3 ± 0.6 nM | 2.1 ± 1.4 nM | 0.91 | 2.7 ± 1 nM | 1.2 | 4.1 | 6.4 ± 2.5 nM | 2.8 | 8.4 ± 2.3 nM | 3.7 | 0.5 ± 0.35 nM | 0.22 | 0.74 ± 0.13 nM | 0.32 | 1.6 ± 0.1 nM | 0.70 | 5.2 ± 1.6 nM | 2.3 | > 250 µM |  |
| Nc1c(C(=O)NCc2ccc(F)cc2F)c(=O)n(O)c2ncc(CCCCCCCCO)cc12 [4e] | 3.7 ± 0.4 nM | 3.2 ± 0.8 nM | 0.86 | 6.5 ± 2.7 nM | 1.8 | 2.1 | 11 ± 1 nM | 3.0 | 3.8 ± 1.1 nM | 1.0 | 1.7 ± 0.5 nM | 0.46 | 2.6 ± 0.2 nM | 0.70 | 4.8 ± 1.1 nM | 1.3 | 22 ± 8 nM | 5.9 | > 250 µM | IC50 (HIV-1 IN): 5 nM |
| Nc1c(C(=O)NCc2ccc(F)cc2F)c(=O)n(O)c2ncc(CCS(=O)(=O)c3ccccc3)cc12 [4f] | 2 ± 0.1 nM | 0.6 ± 0.1 nM | 0.3 | 2.1 ± 1.2 nM | 1 | 3 | 11.4 ± 3.5 nM | 6 | 5.3 ± 0.8 nM | 2 | 0.7 ± 0.1 nM | 0.3 | 1.2 ± 0.6 nM | 0.6 | 0.8 ± 0.5 nM | 0.4 | 5.3 ± 0.4 nM | 2 | > 250 µM |  |
| Cc1nnc(C(=O)NC(C)(C)c2nc(C(=O)NCc3ccc(F)cc3)c(O)c(=O)n2C)o1 [compound 1, raltegravir, reference compound] |  |  |  |  |  |  |  |  |  |  | 2.8 ± 0.4 nM |  | 30 ± 10 nM |  | 3.4 ± 0.2 nM |  | 6 ± 2.3 nM |  |  |  |
| COc1cc2c(cc1Cc1cccc(Cl)c1F)c(=O)c(C(=O)O)cn2[C@H](CO)C(C)C [compound 2, elvitegravir, reference compound] | 6.4 ± 0.8 nM | 7.9 ± 2.3 nM | 1.2 | 90 ± 18 nM | 14 | 891 | 21 ± 10 nM | 3.3 | 10 ± 6 nM | 1.6 | 66 ± 1 nM | 10 | 154 ± 34 nM | 24 | 4.5 ± 2.1 nM | 0.7 | 53 ± 18 nM | 8 | > 250 µM |  |
| C[C@@H]1CCO[C@H]2Cn3cc(C(=O)NCc4ccc(F)cc4F)c(=O)c(O)c3C(=O)N12 [compound 3, dolutegravir, reference compound] |  |  |  |  |  |  |  |  |  |  | 0.9 ± 0.8 nM |  | 2.3 ± 0.4 nM |  | 3.2 ± 0.2 nM |  | 16 ± 2 nM |  |  |  |
